In ChEMBL document CHEMBL1127908, “A congener study of zileuton reveals interesting effects on glucuronidation rates” (Bioorg Med Chem Lett, 1994):

Species on record: Homo sapiens
Assay: Concentration required for the inhibition of LTB4 production in human whole blood
Assay type: functional, organism-based
Conditions: not given

SMILES | IC50
CC(c1cc2ccncc2s1)N(O)C(N)=O (single isomer, unassigned; (+)) [listing 1 of 2 here] | 1.5 µM
CC(c1cc2ncccc2s1)N(O)C(N)=O (single isomer, unassigned; (+)) [listing 1 of 2 here] | 3.12 µM
CC(c1cc2cccnc2o1)N(O)C(N)=O (single isomer, unassigned; (-)) [listing 1 of 2 here] | 11.3 µM
CC(c1cc2cccnc2s1)N(O)C(N)=O (single isomer, unassigned; (-)) [listing 1 of 2 here] | 3.7 µM
CC(c1cc2ccccc2s1)N(O)C(N)=O (single isomer, unassigned; (-)) [ZILEUTON] | 1.88 µM
CC(c1cc2ccccc2s1)N(O)C(N)=O (stereo in doubt; (+)-1b) [ZILEUTON] | 0.64 µM
CC(c1cc2cccnc2s1)N(O)C(N)=O (stereo in doubt; (+)-2b) [listing 1 of 2 here] | 0.95 µM
CC(c1cc2cccnc2o1)N(O)C(N)=O (stereo in doubt; (+)-5b) [listing 1 of 2 here] | 2.78 µM
CC(c1cc2ncccc2s1)N(O)C(N)=O (stereo in doubt; (-)-4a) [listing 1 of 2 here] | 6.62 µM

Same assay, conditions: Homo sapiens, Blood

SMILES | IC50
CC(c1cc2ccncc2s1)N(O)C(N)=O (stereo in doubt; (-)-3a) [listing 1 of 2 here] | 2 µM

Species on record: Homo sapiens
Assay: Tested for its rate of glucuronidation in 0.5-2.5 mg/mL of human microsomal protein; not detected
Assay type: functional
Conditions: not given

SMILES | Glucuronidation rate
CC(c1cc2cccnc2o1)N(O)C(N)=O (stereo in doubt; (+)-5b) [listing 2 of 2 here] | Not detected

Species on record: Homo sapiens
Assay: Tested for its rate of glucuronidation in 0.5-2.5 mg/mL of human microsomal protein; Not detected
Assay type: functional
Conditions: not given

SMILES | Glucuronidation rate
CC(c1cc2cccnc2o1)N(O)C(N)=O (single isomer, unassigned; (-)) [listing 2 of 2 here] | Not detected

Species on record: Homo sapiens
Assay: Tested for its rate of glucuronidation in 0.5-2.5 mg/mL of human microsomal protein
Assay type: functional
Conditions: not given

SMILES | Glucuronidation rate (nM min-1 mg-1)
CC(c1cc2ccncc2s1)N(O)C(N)=O (single isomer, unassigned; (+)) [listing 2 of 2 here] | 0.053
CC(c1cc2ncccc2s1)N(O)C(N)=O (single isomer, unassigned; (+)) [listing 2 of 2 here] | 0.006
CC(c1cc2ccccc2s1)N(O)C(N)=O (single isomer, unassigned; (-)) | 0.155
CC(c1cc2cccnc2s1)N(O)C(N)=O (single isomer, unassigned; (-)) [listing 2 of 2 here] | 0.058
CC(c1cc2ccccc2s1)N(O)C(N)=O (stereo in doubt; (+)-1b) | 0.025
CC(c1cc2cccnc2s1)N(O)C(N)=O (stereo in doubt; (+)-2b) [listing 2 of 2 here] | 0.012
CC(c1cc2ccncc2s1)N(O)C(N)=O (stereo in doubt; (-)-3a) [listing 2 of 2 here] | 0.241
CC(c1cc2ncccc2s1)N(O)C(N)=O (stereo in doubt; (-)-4a) [listing 2 of 2 here] | 0.037
